± gives the standard deviation of the averaged measurements.
How the values were obtained:
Conditions in all cases: 72 h
[1] = tested on: Caco-2; test: cell viability relative to DMSO; higher = less toxic
[2] = tested on: Calu-3; test: as above
[3] = tested on: HepG2; test: as above
[4] = tested on: U2OS; test: as above
[5] = tested on: Vero E6; test: as above
[6] = tested on: Caco-2; test: relative viability EC50 (midpoint between 100% and the lowest measured viability); higher = less toxic
[7] = tested on: Calu-3; test: as above
[8] = tested on: HepG2; test: as above
[9] = tested on: U2OS; test: as above
[10] = tested on: Vero E6; test: as above
[11] = tested on: Caco-2; test: drug sensitivity score (DSS) for viability; higher = more toxic; extreme values may be limits of the assay
[12] = tested on: Calu-3; test: as above
[13] = tested on: HepG2; test: as above
[14] = tested on: U2OS; test: as above
[15] = tested on: Vero E6; test: as above

| SMILES | cell viability ([1]; 1 nM) [%] | cell viability ([1]; 10 nM) [%] | cell viability ([1]; 100 nM) [%] | cell viability ([1]; 1000 nM) [%] | cell viability ([1]; 10000 nM) [%] | cell viability ([2]; 1 nM) [%] | cell viability ([2]; 10 nM) [%] | cell viability ([2]; 100 nM) [%] | cell viability ([2]; 1000 nM) [%] | cell viability ([2]; 10000 nM) [%] | cell viability ([3]; 1 nM) [%] | cell viability ([3]; 10 nM) [%] | cell viability ([3]; 100 nM) [%] | cell viability ([3]; 1000 nM) [%] | cell viability ([3]; 10000 nM) [%] | cell viability ([4]; 1 nM) [%] | cell viability ([4]; 10 nM) [%] | cell viability ([4]; 100 nM) [%] | cell viability ([4]; 1000 nM) [%] | cell viability ([4]; 10000 nM) [%] | cell viability ([5]; 1 nM) [%] | cell viability ([5]; 10 nM) [%] | cell viability ([5]; 100 nM) [%] | cell viability ([5]; 1000 nM) [%] | cell viability ([5]; 10000 nM) [%] | relative viability EC50 [6] [µM] | relative viability EC50 [7] [µM] | relative viability EC50 [8] [µM] | relative viability EC50 [9] [µM] | relative viability EC50 [10] [µM] | drug sensitivity score [11] | drug sensitivity score [12] | drug sensitivity score [13] | drug sensitivity score [14] | drug sensitivity score [15] |
| --- | --- | --- | --- | --- | --- | --- | --- | --- | --- | --- | --- | --- | --- | --- | --- | --- | --- | --- | --- | --- | --- | --- | --- | --- | --- | --- | --- | --- | --- | --- | --- | --- | --- | --- | --- |
| Cc1[nH]c(/C=C2\C(=O)Nc3cc(-c4ccccc4)ccc32)c(C)c1CCC(=O)O [SU16f] | 98.7 | 100 | 97.5 | 91.9 | 83.3 | 99.8 | 108 | 107 | 103 | 104 | 92.3 | 95.1 | 87.6 | 97.9 | 76.8 | 104 | 97 | 102 | 95.5 | 89.1 | 92.9 | 93.3 | 93.8 | 92.8 | 87 | > 10 | > 10 | > 10 | > 10 | > 10 | 0.7 | 0 | 1 | 0.1 | 0 |
| C[C@@H]1NC(=O)[C@@H](N)CNC(=O)[C@H](C2CCNC(=N)N2)NC(=O)/C(=C/NC(N)=O)NC(=O)[C@H](CNC(=O)CC(N)CCCN)NC1=O.N=C1NCC[C@H]([C@@H]2NC(=O)/C(=C/NC(N)=O)NC(=O)[C@H](CNC(=O)C[C@@H](N)CCCN)NC(=O)[C@H](CO)NC(=O)[C@@H](N)CNC2=O)N1 [capreomycin] | 96.2 | 94.8 | 98 | 95 | 99.3 | 104 | 100 | 105 | 95.3 | 108 | 94.4 | 102 | 105 | 108 | 99.1 | 103 | 100 | 102 | 96 | 106 | 98.8 | 105 | 102 | 94.1 | 94.8 | > 10 | > 10 | > 10 | > 10 | > 10 | 0 | 0 | 0 | 0 | 0 |
| NC(=O)C[S+]([O-])C(c1ccccc1)c1ccccc1 (stereo not given) [MODAFINIL] | 103 ± 3.7 | 99.5 ± 2.2 | 109 ± 10 | 100.4 ± 0.42 | 97 ± 2.3 | 93 ± 6.5 | 99.4 ± 0.57 | 99.3 ± 6.7 | 102.2 ± 0.35 | 95.8 ± 7.3 | 102 ± 17 | 103 ± 1.9 | 99.2 ± 12 | 96.1 ± 15 | 95.3 ± 4.4 | 99.2 ± 1.5 | 97.8 ± 2.8 | 99.7 ± 2.9 | 98.2 ± 3 | 100 ± 4.6 | 97.3 ± 6 | 103 ± 14 | 96.2 ± 15 | 88.6 ± 4 | 104 ± 5.5 | > 10 | > 10 | > 10 | > 10 | > 10 | 0 | 0 | 0.55 ± 0.78 | 0 | 0 |
| COC(=O)[C@H]1[C@H]2C[C@@H]3c4[nH]c5cc(OC)ccc5c4CCN3C[C@H]2C[C@@H](OC(=O)c2cc(OC)c(OC)c(OC)c2)[C@@H]1OC [reserpine] | 110 | 90.1 | 96.4 | 91.9 | 101 | 107 | 92.5 | 109 | 102 | 111 | 106 | 93.5 | 81.3 | 96 | 96.6 | 98 | 97.7 | 95.8 | 94.8 | 99.2 | 112 | 95.2 | 96.6 | 104 | 97.1 | > 10 | > 10 | > 10 | > 10 | > 10 | 0 | 0 | 0 | 0 | 0 |
| CNCCCN1c2ccccc2CCc2ccccc21 [desipramine] | 98.9 | 111 | 102 | 94.3 | 90.6 | 104 | 101 | 104 | 109 | 96.2 | 119 | 114 | 105 | 113 | 89 | 104 | 102 | 104 | 98.1 | 97.1 | 107 | 103 | 97 | 102 | 99.9 | > 10 | > 10 | > 10 | > 10 | > 10 | 0 | 0 | 0 | 0 | 0 |
| CCc1ccc(C(=O)C(C)CN2CCCCC2)cc1 (stereo not given) [eperisone] | 98.6 | 106 | 91.7 | 102 | 98.5 | 103 | 93.7 | 87.5 | 101 | 88.8 | 107 | 95.5 | 95.8 | 95.4 | 100 | 93.6 | 102 | 96.2 | 99.9 | 94.9 | 105 | 99.7 | 106 | 103 | 105 | > 10 | > 10 | > 10 | > 10 | > 10 | 0 | 0 | 0 | 0 | 0 |
| O=C(O)c1cccnc1C(=O)O [quinolinic-acid] | 103 | 110 | 96.8 | 103 | 90.3 | 91.5 | 105 | 97.1 | 100 | 101 | 105 | 99.5 | 97.6 | 102 | 97.8 | 98.2 | 103 | 98.6 | 102 | 97.7 | 108 | 97.4 | 108 | 99.2 | 102 | > 10 | > 10 | > 10 | > 10 | > 10 | 0 | 0 | 0 | 0 | 0 |
| CCOP(=S)(OCC)Oc1nc(Cl)c(Cl)cc1Cl [chlorpyrifos] | 100 | 102 | 97.5 | 103 | 107 | 89.7 | 93.6 | 90.1 | 97 | 96.2 | 93.3 | 100 | 90.3 | 96.3 | 93.7 | 92.3 | 102 | 94.9 | 94.8 | 99.4 | 102 | 90.2 | 109 | 106 | 94.2 | > 10 | > 10 | > 10 | > 10 | > 10 | 0 | 0 | 0 | 0 | 0 |
| CC(C)c1nc(CN(C)C(=O)N[C@H](C(=O)N[C@@H](Cc2ccccc2)C[C@H](O)[C@H](Cc2ccccc2)NC(=O)OCc2cncs2)C(C)C)cs1 [ritonavir] | 97.8 | 94.3 | 96.3 | 100 | 77.5 | 102 | 87 | 93.7 | 102 | 98.6 | 98.6 | 104 | 94 | 107 | 110 | 105 | 97.5 | 98 | 94.5 | 95.4 | 94.4 | 97.5 | 89.4 | 102 | 108 | > 10 | > 10 | > 10 | > 10 | > 10 | 0.8 | 0 | 0 | 0 | 0 |
| O=C(O)C[C@H]1CC[C@H](c2ccc(-c3ccc(Nc4ccc(C(F)(F)F)nc4)cn3)cc2)CC1 [LCQ908] | 104 | 102 | 98.3 | 100 | 92.4 | 92.1 | 103 | 95 | 95.7 | 95.5 | 99.4 | 102 | 108 | 93.5 | 99.8 | 95.7 | 102 | 97 | 102 | 90.5 | 105 | 104 | 103 | 100 | 104 | > 10 | > 10 | > 10 | > 10 | > 10 | 0 | 0 | 0 | 0 | 0 |
| CC(C)(C)C(=O)/C(=N/c1ccc(Cl)cc1)NNc1ccc(Cl)cc1 | 82.3 | 91.6 | 91.4 | 96.6 | 83.9 | 97.8 | 107 | 98.8 | 98.6 | 102 | 105 | 95 | 95.5 | 95.3 | 97.6 | 96.7 | 107 | 102 | 103 | 94 | 97.5 | 99.3 | 102 | 97.2 | 107 | > 10 | > 10 | > 10 | > 10 | > 10 | 0 | 0 | 0 | 0 | 0 |
| Fc1ccc(C(c2ccccc2)(c2ccccc2F)n2ccnc2)cc1 (stereo not given) [flutrimazole] | 122 | 112 | 96.1 | 98.9 | 80.5 | 102 | 92 | 107 | 90.4 | 106 | 106 | 110 | 95.7 | 96.5 | 97.7 | 108 | 107 | 107 | 102 | 97.1 | 97 | 102 | 108 | 118 | 99.2 | > 10 | > 10 | > 10 | > 10 | > 10 | 0.7 | 0 | 0 | 0 | 0 |
| c1ccc(-c2ccc(CNc3nc(-c4ccccn4)nnc3-c3ccccc3)cc2)cc1 [ML228] | 104 | 98.2 | 89.3 | 49.5 | 13.6 | 96 | 102 | 101 | 48.6 | 17.5 | 91.4 | 104 | 103 | 31.4 | 21 | 100 | 99.1 | 94.3 | 38.8 | 3.6 | 93.1 | 92.3 | 97 | 9.5 | 4.5 | 0.692 | 0.818 | 0.484 | 0.685 | 0.339 | 11.2 | 10.7 | 12.5 | 12.8 | 16.9 |
